Experimental data from ChEMBL document CHEMBL6121002, “Discovery of novel bicyclic and tricyclic cyclohepta[b]thiophene derivatives as multipotent AChE and BChE inhibitors, in-Vivo and in-Vitro assays, ADMET and molecular docking simulation” (Eur J Med Chem, 2025).
The source made the active and inactive calls. The calls are words filed in the database; no cut-off is given here.

How the values were obtained:
[1] = test system: Rattus norvegicus; assay: Antialzheimer activity in AlCl3-induced learning and memory impairment in Sprague-Dawley rat assessed as reduction in escape latency time at 30 mg/kg, po measured after 5 weeks by MWM test relative to control; type: functional; parameters: scale not given: the % may be the effect or the level left
[2] = test system: Rattus norvegicus; assay: Antialzheimer activity in AlCl3-induced learning and memory impairment in Sprague-Dawley rat assessed as increase in time spent in target quadrant at 30 mg/kg, po measured after 5 weeks by […]; type: functional, organism-based
[3] = test system: Rattus norvegicus; assay: Antialzheimer activity in AlCl3-induced learning and memory impairment in Sprague-Dawley rat assessed as time taken for learning at 30 mg/kg, po measured after 5 weeks by MWM test (reference value: 53.67 +/- 1.05 sec); type: functional
[4] = test system: Rattus norvegicus; assay: Antialzheimer activity in AlCl3-induced learning and memory impairment in Sprague-Dawley rat assessed as time taken for memory at 30 mg/kg, po measured after 5 weeks by MWM test (reference value: 6.833 +/- 0.79 sec); type: functional
[5] = test system: Rattus norvegicus; assay: Antialzheimer activity in AlCl3-induced learning and memory impairment in Sprague-Dawley rat assessed as spontaneous alternation at 30 mg/kg, po measured after 5 weeks by Y-maze test (reference value: 50 +/- 2.89 %); type: functional
[6] = test system: Rattus norvegicus; assay: Antialzheimer activity in AlCl3-induced learning and memory impairment in Sprague-Dawley rat assessed as reduction in TNF-alpha level in brain tissue at 30 mg/kg, po measured after 5 weeks by ELISA relative to control; type: functional; parameters: scale not given: the % may be the effect or the level left
[7] = test system: Rattus norvegicus; assay: Antialzheimer activity in AlCl3-induced learning and memory impairment in Sprague-Dawley rat assessed as fold increase in time spent in target quadrant at 30 mg/kg, po measured after 5 weeks by […] relative to control; type: functional
[8] = test system: Rattus norvegicus; assay: Antialzheimer activity in AlCl3-induced learning and memory impairment in Sprague-Dawley rat assessed as fold increase in dopamine level in brain tissue at 30 mg/kg, po measured after 5 weeks by fluorometric analysis relative to control; type: functional
[9] = test system: Rattus norvegicus; assay: Antialzheimer activity in AlCl3-induced learning and memory impairment in Sprague-Dawley rat assessed as fold increase in norepinephrine level in brain tissue at 30 mg/kg, po measured after 5 weeks by fluorometric analysis relative to control; type: functional
[10] = test system: Rattus norvegicus; assay: Antialzheimer activity in AlCl3-induced learning and memory impairment in Sprague-Dawley rat assessed as fold decrease in AChE level in brain tissue at 30 mg/kg, po measured after 5 weeks by fluorometric analysis relative to control; type: functional
[11] = target: Acetylcholinesterase (Homo sapiens, UniProt P22303); assay: Inhibition of AChE (unknown origin) incubated for 40 mins in presence of substrate
[12] = target: Cholinesterase (Homo sapiens, UniProt P06276); assay: Inhibition of BChE (unknown origin) using butyrylthiocholine iodide as substrate incubated for 20 mins by fluorescence based assay
[13] = Selectivity index, ratio of IC50 for BChE (unknown origin) using butyrylthiocholine iodide as substrate to IC50 for AChE (unknown origin)
[14] = test system: Rattus norvegicus; assay: Antialzheimer activity in AlCl3-induced learning and memory impairment in Sprague-Dawley rat assessed as fold increase in 5-HT level in brain tissue at 30 mg/kg, po measured after 5 weeks by fluorometric analysis relative to control; type: functional

Sequence of Acetylcholinesterase (P22303 whole entry): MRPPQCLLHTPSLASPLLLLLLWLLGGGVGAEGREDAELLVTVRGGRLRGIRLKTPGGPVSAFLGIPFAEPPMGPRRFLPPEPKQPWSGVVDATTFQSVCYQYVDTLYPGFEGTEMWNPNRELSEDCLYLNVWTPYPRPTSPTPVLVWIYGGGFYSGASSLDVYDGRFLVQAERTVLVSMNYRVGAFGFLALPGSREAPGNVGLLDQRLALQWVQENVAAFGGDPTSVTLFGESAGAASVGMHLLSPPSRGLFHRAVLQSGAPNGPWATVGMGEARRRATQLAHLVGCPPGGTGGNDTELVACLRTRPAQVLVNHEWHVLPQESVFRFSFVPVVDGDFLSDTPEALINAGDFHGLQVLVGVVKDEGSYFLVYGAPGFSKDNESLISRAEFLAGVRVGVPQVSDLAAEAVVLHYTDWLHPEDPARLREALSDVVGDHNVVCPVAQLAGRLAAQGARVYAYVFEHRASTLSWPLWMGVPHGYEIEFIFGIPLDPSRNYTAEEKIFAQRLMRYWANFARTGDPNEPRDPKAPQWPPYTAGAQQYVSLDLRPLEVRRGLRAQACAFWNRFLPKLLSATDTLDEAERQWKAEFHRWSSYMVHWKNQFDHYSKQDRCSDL
Sequence of Cholinesterase (P06276 whole entry): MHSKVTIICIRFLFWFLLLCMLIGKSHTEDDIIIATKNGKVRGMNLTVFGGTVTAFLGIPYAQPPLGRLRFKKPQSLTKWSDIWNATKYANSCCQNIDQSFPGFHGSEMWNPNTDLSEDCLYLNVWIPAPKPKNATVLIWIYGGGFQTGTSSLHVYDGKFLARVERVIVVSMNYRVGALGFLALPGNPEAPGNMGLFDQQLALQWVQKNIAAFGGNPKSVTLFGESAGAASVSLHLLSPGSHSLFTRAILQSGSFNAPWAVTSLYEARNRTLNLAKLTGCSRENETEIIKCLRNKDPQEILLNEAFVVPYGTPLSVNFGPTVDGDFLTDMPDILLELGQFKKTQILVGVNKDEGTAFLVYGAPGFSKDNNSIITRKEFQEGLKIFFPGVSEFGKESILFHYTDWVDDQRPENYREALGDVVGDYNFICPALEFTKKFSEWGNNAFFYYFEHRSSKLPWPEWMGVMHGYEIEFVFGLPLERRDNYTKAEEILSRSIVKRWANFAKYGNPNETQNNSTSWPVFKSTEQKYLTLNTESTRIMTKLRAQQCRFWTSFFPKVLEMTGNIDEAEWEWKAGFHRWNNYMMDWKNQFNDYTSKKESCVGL

Structure (SMILES) | Activity [1] | Activity [2] | Time [3] | Time [4] | Activity [5] | Activity [6] | fold change (FC) [7] | fold change (FC) [8] | fold change (FC) [9] | fold change (FC) [10] | IC50 [11] | IC50 [12] | Ratio IC50 [13] | fold change (FC) [14]
COc1cc2c(cc1OC)C(=O)C(CC1CCN(Cc3ccccc3)CC1)C2 (stereo not drawn) [DONEPEZIL] | 28% | Active | 14.78 s | 42.67 s | 85% | 63% | – | – | – | – | – | – | – | –
O=C1c2c(sc3c2CCCCC3)OC(c2ccccc2)N1c1ccc(Cl)cc1 (stereo not drawn) | <=47% | Active | 25.67 s | 35.5 s | 71.5% | 54.5% | 5.2 | 1.7 | 1.7 | 2.3 | 9.48 µM | 24.7 µM | 2.6 | –
O=C1c2c(sc3c2CCCCC3)OC(c2ccc(Cl)cc2)N1c1ccc(Cl)cc1 (stereo not drawn) | 22% | Active | 11.83 s | 46.5 s | 83.33% | 73.9% | 6.5 | 4.2 | ~3.2 | – | 12.6 µM | 308 µM | 24.4 | 5.8
COc1ccc(N2C(=O)c3c(sc4c3CCCCC4)OC2c2ccccc2)cc1 (stereo not drawn) | <=43% | Active | 23 s | 38.17 s | 74.33% | 62.6% | 5.6 | 3.5 | 1.7 | 2.3 | 4.05 µM | 11 µM | 2.73 | –
COc1ccc(N2C(=O)c3c(sc4c3CCCCC4)OC2c2ccc(Cl)cc2)cc1 (stereo not drawn) | 30% | Active | 16.33 s | 41.67 s | 85% | 70.8% | 5.9 | 3.8 | 2.9 | – | 3.14 µM | 7.76 µM | 2.47 | 5.1
CCOC(=O)c1c(OC(=O)c2ccc(Cl)cc2)sc2c1CCCCC2 | – | Active | 34 s | 27.67 s | 70.67% | 49.2% | – | 1.7 | – | – | 1.05 µM | 2.9 µM | 2.76 | –
CCOC(=O)c1c(OC(=O)c2ccccc2)sc2c1CCCCC2 | – | Active | 37 s | 24.17 s | 63.5% | 43.8% | – | 1.7 | – | – | 2.16 µM | 7.5 µM | 3.47 | –
O=C1c2c(sc3c2CCCCC3)OC(c2ccccc2)N1c1ccccc1 (stereo not drawn) | 32% | Active | 17 s | 35.83 s | 80% | 61.2% | 5.3 | 3.8 | 2.2 | 3.5 | 0.51 µM | 2.48 µM | 4.86 | 4.5
O=C1c2c(sc3c2CCCCC3)OC(c2ccc(Cl)cc2)N1c1ccccc1 (stereo not drawn) | <=46% | Active | 24.67 s | 36.83 s | 73.83% | 54.6% | 5.4 | 1.7 | 1.7 | 2.3 | 0.55 µM | 6.9 µM | 12.6 | –
